Experimental data reported in patent publication US20170210741A1, “Benzimidazole Compounds, Use As Inhibitors of WNT Signaling Pathway in Cancers, and Methods for Preparation Thereof” (Southern Research Institute, priority 2016, published 2017).
Like-named read-outs stand apart in the source and are kept apart here.

Assays:
Type in all cases: cell-based
S2VP10 = experiment: In vitro cell viability assay (Cell Titer Glo), pancreatic cancer S2VP10; details: 72 h
Protocol: (§1) Breast cancer SUM159 was obtained from Asterand and grown according to supplier's recommendation. All other cell lines were obtained from ATCC and cultured in standard cell culture conditions with complete cell culture medium containing 10% FBS.
(§2) Cancer cells were seeded into optically clear tissue culture-treated black 96-well plates (for adherent cells) or low-attachment 96-well plates (for cancer stem cells) at 2,000-5000 cells/50 μL of media per well. The cells were treated with Wnt inhibitors at 0.1 to 10 μM for 72 h. Cell viability was measured by the Cell Titer Glo Assay from Promega.

Suit-2 = experiment: In vitro cell viability assay (Cell Titer Glo), pancreatic cancer Suit-2; details: 72 h
Protocol: as §1, §2

Wnt signaling = Wnt signaling reporter assay (Super8XTOPFlash luciferase) in LRP6-expressing HEK293 cells; details: 24 h treatment, luciferase normalized to β-galactosidase
Protocol: HEK293 cells were plated into 24-well plates. After overnight culture, the cells were transiently transfected with 0.06 μg of the Super8XTOPFlash luciferase construct, 0.06 μg of β-galactosidase-expressing vector, and 0.06 μg of pCS-Myc-hLRP6 or control vector. After 24 h incubation, cells were treated with each individual compound in triplicate for 24 h. Cells were then lysed, and the luciferase and β-galactosidase activities were determined by the luciferase assay system (Promega) and β-galactosidase assay system (Promega), respectively. The luciferase activity was normalized to the β-galactosidase activity.
Table 2 below illustrates the effects of the disclosed compounds on Wnt signaling in LRP6-expressing HEK293 cells.

[1] = S2VP10, CSC enriching serum free medium, non-adherent plates, read-out: Cell viability (IC50) S2VP10 CSC
[2] = S2VP10, adherent, complete medium 10% FBS, read-out: Cell viability (IC50) S2VP10 Adherent
[3] = Suit-2, CSC enriching serum free medium, non-adherent plates, read-out: Cell viability (IC50) Suit-2 CSC
[4] = Suit-2, adherent, complete medium 10% FBS, read-out: Cell viability (IC50) Suit-2 Adherent

SMILES | IC50 (S2VP10; [1]) | IC50 (S2VP10; [2]) | IC50 (Suit-2; [3]) | IC50 (Suit-2; [4]) | IC50 (effects on Wnt signaling) (Wnt signaling)
Clc1cc2nc(-c3ccc(N4CCNCC4)cc3)[nH]c2cc1Cl [Compound 13, 5,6-dichloro-2-(4-(piperazin-1-yl)phenyl)-1H-benzo[d]imidazole] | > 10 µM | > 10 µM | > 10 µM | > 10 µM | –
CCN1CCN(c2ccc(-c3nc4cc(Cl)c(Cl)cc4[nH]3)cc2)CC1 [Compound 14, 5,6-dichloro-2-(4-(4-ethylpiperazin-1-yl)phenyl)-1H-benzo[d]imidazole] | 1.33 µM | > 10 µM | 1.23 µM | > 10 µM | –
Clc1cc2nc(-c3ccc(-n4ccnc4)cc3)[nH]c2cc1Cl [Compound 15, 2-(4-(1H-imidazol-1-yl)phenyl)-5,6-dichloro-1H-benzo[d]imidazole] | 1.34 µM | > 10 µM | 1.81 µM | > 10 µM | –
Cc1nccn1-c1ccc(-c2nc3cc(Cl)c(Cl)cc3[nH]2)cc1 [Compound 16, 5,6-dichloro-2-(4-(2-methyl-1H-imidazol-1-yl)phenyl)-1H-benzo[d]imidazole] | > 10 µM | > 10 µM | > 10 µM | > 10 µM | –
CN1CCN(c2ccc(-c3nc4ccc(C(F)(F)F)cc4[nH]3)cc2)CC1 [Compound 18, 2-(4-(4-methylpiperazin-1-yl)phenyl)-6-(trifluoromethyl)-1H-benzo[d]imidazole] | 1.52 µM | 7.16 µM | 0.76 µM | > 10 µM | Inactive
CN1CCN(c2ccc(-c3nc4ccc(F)cc4[nH]3)cc2)CC1 [Compound 19, 6-fluoro-2-(4-(4-methylpiperazin-1-yl)phenyl)-1H-benzo[d]imidazole] | 0.35 µM | 0.79 µM | 0.33 µM | 1.34 µM | Inactive
CN1CCN(c2ccc(-c3nc4ccncc4[nH]3)cc2)CC1 [Compound 20, 2-(4-(4-methylpiperazin-1-yl)phenyl)-3H-imidazo[4,5-c]pyridine] | 0.18 µM | 0.14 µM | 0.21 µM | 0.29 µM | Inactive
Cn1c(-c2ccc(OC(F)(F)F)cc2)nc2cc(Cl)c(Cl)cc21 [Compound 23, 5,6-dichloro-1-methyl-2-(4-(trifluoromethoxy)phenyl)-1H-benzo[d]imidazole] | – | – | – | – | Inactive
Fc1cc2nc(-c3ccc(OC(F)(F)F)cc3)[nH]c2cc1Cl [Compound 24, 6-chloro-5-fluoro-2-(4-(trifluoromethoxy)phenyl)-1H-benzo[d]imidazole] | – | – | – | – | Inactive
Fc1cc2[nH]c(-c3ccc(OC(F)(F)F)cc3)nc2cc1C(F)(F)F [Compound 25, 6-fluoro-2-(4-(trifluoromethoxy)phenyl)-5-(trifluoromethyl)-1H-benzo[d]imidazole] | 2.77 µM | 7.2 µM | 2.05 µM | 5.63 µM | Inactive
FC(F)(F)Oc1ccc(-c2nc3cc(C(F)(F)F)c(Cl)cc3[nH]2)cc1 [Compound 26, 6-chloro-2-(4-(trifluoromethoxy)phenyl)-5-(trifluoromethyl)-1H-benzo[d]imidazole] | 0.95 µM | 6.92 µM | 0.86 µM | 6.44 µM | Inactive
FC(F)(F)c1ccc2[nH]c(-c3ccc(N4CCCCC4)cc3)nc2c1 [Compound 29, 2-(4-(piperidin-1-yl)phenyl)-5-(trifluoromethyl)-1H-benzo[d]imidazole] | 1.08 µM | > 10 µM | 1.42 µM | 7.56 µM | Inactive
c1cc2nc(-c3ccc(N4CCCCC4)cc3)[nH]c2cn1 [Compound 30, 2-(4-(piperidin-1-yl)phenyl)-3H-imidazo[4,5-c]pyridine] | – | 0.06 µM | 0.07 µM | 0.08 µM | Inactive
